Source: the supplement of paper PMC13380429

Legend:
Details in all cases: 72 h
[1] = tested on: U2OS; experiment: cell viability relative to DMSO; higher = less toxic
[2] = tested on: HepG2; experiment: as above
[3] = tested on: Calu-3; experiment: as above
[4] = tested on: Vero E6; experiment: as above
[5] = tested on: U2OS; experiment: drug sensitivity score (DSS) for viability; higher = more toxic; extreme values may be limits of the assay
[6] = tested on: HepG2; experiment: as above
[7] = tested on: Calu-3; experiment: as above
[8] = tested on: Vero E6; experiment: as above
[9] = tested on: U2OS; experiment: relative viability EC50 (midpoint between 100% and the lowest measured viability); higher = less toxic
[10] = tested on: HepG2; experiment: as above
[11] = tested on: Calu-3; experiment: as above
[12] = tested on: Vero E6; experiment: as above
[13] = tested on: Caco-2; experiment: cell viability relative to DMSO; higher = less toxic
[14] = tested on: Caco-2; experiment: drug sensitivity score (DSS) for viability; higher = more toxic; extreme values may be limits of the assay
[15] = tested on: Caco-2; experiment: relative viability EC50 (midpoint between 100% and the lowest measured viability); higher = less toxic

C=C1CC[C@H](O)C/C1=C/C=C1\CCC[C@]2(C)[C@@H]([C@H](C)/C=C/[C@H](C)C(C)C)CC[C@@H]12 [ergocalciferol]
cell viability ([1]; 1 nM): 99.3% | cell viability ([1]; 10 nM): 99.6% | cell viability ([1]; 100 nM): 96.2% | cell viability ([1]; 1000 nM): 100% | cell viability ([1]; 10000 nM): 94.3% | cell viability ([2]; 1 nM): 114% | cell viability ([2]; 10 nM): 99.3% | cell viability ([2]; 100 nM): 112% | cell viability ([2]; 1000 nM): 97.5% | cell viability ([2]; 10000 nM): 93% | cell viability ([3]; 1 nM): 86.5% | cell viability ([3]; 10 nM): 89.2% | cell viability ([3]; 100 nM): 80.2% | cell viability ([3]; 1000 nM): 108% | cell viability ([3]; 10000 nM): 104% | cell viability ([4]; 1 nM): 102% | cell viability ([4]; 10 nM): 105% | cell viability ([4]; 100 nM): 96.2% | cell viability ([4]; 1000 nM): 93.6% | cell viability ([4]; 10000 nM): 101% | drug sensitivity score [5]: 0 | drug sensitivity score [6]: 0 | drug sensitivity score [7]: 0 | drug sensitivity score [8]: 0 | relative viability EC50 [9]: > 10 µM | relative viability EC50 [10]: > 10 µM | relative viability EC50 [11]: > 10 µM | relative viability EC50 [12]: > 10 µM

CN1C(=O)CC(C)(c2ccccc2)C1=O (centres undefined) [methsuximide]
cell viability ([1]; 1 nM): 97.1% | cell viability ([1]; 10 nM): 101% | cell viability ([1]; 100 nM): 94% | cell viability ([1]; 1000 nM): 96.6% | cell viability ([1]; 10000 nM): 91.2% | cell viability ([2]; 1 nM): 98.2% | cell viability ([2]; 10 nM): 94.4% | cell viability ([2]; 100 nM): 101% | cell viability ([2]; 1000 nM): 100% | cell viability ([2]; 10000 nM): 104% | cell viability ([13]; 1 nM): 97.5% | cell viability ([13]; 10 nM): 102% | cell viability ([13]; 100 nM): 99.1% | cell viability ([13]; 1000 nM): 105% | cell viability ([13]; 10000 nM): 96.7% | cell viability ([4]; 1 nM): 96.1% | cell viability ([4]; 10 nM): 97.1% | cell viability ([4]; 100 nM): 98.7% | cell viability ([4]; 1000 nM): 96.1% | cell viability ([4]; 10000 nM): 95.2% | drug sensitivity score [5]: 0 | drug sensitivity score [6]: 0 | drug sensitivity score [14]: 0 | drug sensitivity score [8]: 0 | relative viability EC50 [9]: > 10 µM | relative viability EC50 [10]: > 10 µM | relative viability EC50 [15]: > 10 µM | relative viability EC50 [12]: > 10 µM

CCCCCOc1ccc(-c2cc(-c3ccc(C(=O)N[C@H]4C[C@@H](O)[C@@H](O)NC(=O)[C@@H]5[C@@H](O)[C@@H](C)CN5C(=O)[C@H]([C@H](O)CC(N)=O)NC(=O)[C@H]([C@H](O)[C@@H](O)c5ccc(O)c(OS(=O)(=O)O)c5)NC(=O)[C@@H]5C[C@@H](O)CN5C(=O)[C@H]([C@@H](C)O)NC4=O)cc3)no2)cc1 [micafungin]
cell viability ([1]; 1 nM): 104% | cell viability ([1]; 10 nM): 102% | cell viability ([1]; 100 nM): 103% | cell viability ([1]; 1000 nM): 101% | cell viability ([1]; 10000 nM): 99.4% | cell viability ([2]; 1 nM): 98.4% | cell viability ([2]; 10 nM): 117% | cell viability ([2]; 100 nM): 106% | cell viability ([2]; 1000 nM): 81.8% | cell viability ([2]; 10000 nM): 109% | cell viability ([3]; 1 nM): 106% | cell viability ([3]; 10 nM): 108% | cell viability ([3]; 100 nM): 98.3% | cell viability ([3]; 1000 nM): 99.4% | cell viability ([3]; 10000 nM): 115% | cell viability ([4]; 1 nM): 99.2% | cell viability ([4]; 10 nM): 101% | cell viability ([4]; 100 nM): 106% | cell viability ([4]; 1000 nM): 97.2% | cell viability ([4]; 10000 nM): 92.9% | drug sensitivity score [5]: 0 | drug sensitivity score [6]: 0 | drug sensitivity score [7]: 0 | drug sensitivity score [8]: 0 | relative viability EC50 [9]: > 10 µM | relative viability EC50 [10]: > 10 µM | relative viability EC50 [11]: > 10 µM | relative viability EC50 [12]: > 10 µM

CCCCc1ccc2[nH]c(NC(=O)OC)nc2c1 [parbendazole]
cell viability ([1]; 1 nM): 96.4% | cell viability ([1]; 10 nM): 98% | cell viability ([1]; 100 nM): 93.2% | cell viability ([1]; 1000 nM): 59.2% | cell viability ([1]; 10000 nM): 32.7% | cell viability ([2]; 1 nM): 82.9% | cell viability ([2]; 10 nM): 98.3% | cell viability ([2]; 100 nM): 98.2% | cell viability ([2]; 1000 nM): 51.7% | cell viability ([2]; 10000 nM): 31.5% | cell viability ([3]; 1 nM): 103% | cell viability ([3]; 10 nM): 96.1% | cell viability ([3]; 100 nM): 96.9% | cell viability ([3]; 1000 nM): 69.8% | cell viability ([3]; 10000 nM): 57.2% | cell viability ([13]; 1 nM): 104% | cell viability ([13]; 10 nM): 94.7% | cell viability ([13]; 100 nM): 91.7% | cell viability ([13]; 1000 nM): 59.9% | cell viability ([13]; 10000 nM): 48.9% | cell viability ([4]; 1 nM): 96% | cell viability ([4]; 10 nM): 98.2% | cell viability ([4]; 100 nM): 94.5% | cell viability ([4]; 1000 nM): 39% | cell viability ([4]; 10000 nM): 28.8% | drug sensitivity score [5]: 8.8 | drug sensitivity score [6]: 9.6 | drug sensitivity score [7]: 5.9 | drug sensitivity score [14]: 8.3 | drug sensitivity score [8]: 12 | relative viability EC50 [9]: 0.676 µM | relative viability EC50 [10]: 0.641 µM | relative viability EC50 [15]: 0.353 µM | relative viability EC50 [12]: 0.38 µM

O=C1C[C@@H]2OCC=C3CN4CC[C@]56c7ccccc7N1[C@H]5[C@H]2[C@H]3C[C@H]46 [strychnine]
cell viability ([1]; 1 nM): 97.2% | cell viability ([1]; 10 nM): 101% | cell viability ([1]; 100 nM): 96.8% | cell viability ([1]; 1000 nM): 103% | cell viability ([1]; 10000 nM): 95.8% | cell viability ([2]; 1 nM): 113% | cell viability ([2]; 10 nM): 93.7% | cell viability ([2]; 100 nM): 106% | cell viability ([2]; 1000 nM): 83.1% | cell viability ([2]; 10000 nM): 96.3% | cell viability ([13]; 1 nM): 97.8% | cell viability ([13]; 10 nM): 91.1% | cell viability ([13]; 100 nM): 83% | cell viability ([13]; 1000 nM): 85.6% | cell viability ([13]; 10000 nM): 90.2% | cell viability ([4]; 1 nM): 102% | cell viability ([4]; 10 nM): 98.8% | cell viability ([4]; 100 nM): 98.3% | cell viability ([4]; 1000 nM): 87.1% | cell viability ([4]; 10000 nM): 88.7% | drug sensitivity score [5]: 0 | drug sensitivity score [6]: 1.7 | drug sensitivity score [14]: 3.7 | drug sensitivity score [8]: 0.9 | relative viability EC50 [9]: > 10 µM | relative viability EC50 [10]: > 10 µM | relative viability EC50 [15]: > 10 µM | relative viability EC50 [12]: > 10 µM

O=C1c2ccccc2-n2c1nc1ccccc1c2=O [tryptanthrin]
cell viability ([1]; 1 nM): 96.5% | cell viability ([1]; 10 nM): 97.7% | cell viability ([1]; 100 nM): 101% | cell viability ([1]; 1000 nM): 102% | cell viability ([1]; 10000 nM): 97.7% | cell viability ([2]; 1 nM): 88.7% | cell viability ([2]; 10 nM): 87.5% | cell viability ([2]; 100 nM): 90.7% | cell viability ([2]; 1000 nM): 98.2% | cell viability ([2]; 10000 nM): 40.5% | cell viability ([13]; 1 nM): 101% | cell viability ([13]; 10 nM): 107% | cell viability ([13]; 100 nM): 110% | cell viability ([13]; 1000 nM): 104% | cell viability ([13]; 10000 nM): 79.7% | cell viability ([4]; 1 nM): 104% | cell viability ([4]; 10 nM): 99.6% | cell viability ([4]; 100 nM): 101% | cell viability ([4]; 1000 nM): 95.7% | cell viability ([4]; 10000 nM): 96.9% | drug sensitivity score [5]: 0 | drug sensitivity score [6]: 3.5 | drug sensitivity score [14]: 0.4 | drug sensitivity score [8]: 0 | relative viability EC50 [9]: > 10 µM | relative viability EC50 [10]: 2.94 µM | relative viability EC50 [15]: > 10 µM | relative viability EC50 [12]: > 10 µM
